# “And” between values parts separate entries of the source, which are not always exact repeats. Equal entries are not always repeated. Where two headings read alike, the source gives them in different places.
# Experiments:
# [1] = Maximum tolerated dose in mice; conditions: mouse, in vivo
# [2] = Mouse pharmacokinetics; assay type: in vivo; conditions: for oral exposure in mouse: words; for Cmax: oral dose 50mg/kg
# Protocol: Test compound was dosed as a bolus solution intravenously at 3 mg free base/kg (dose volume, 5 mL/kg; dose vehicle, saline or 5% DMSO; 40% PEG400; 55% saline) to female NMRI mice (n = 3) or dosed orally by gavage as a solution at 10 and/or 50 mg free base/kg (dose volume, 5 mL/kg; dose vehicle, 5% DMSO; 95% distilled water or 5% DMSO; 40% PEG400; 55% distilled water) to female NMRI mice (n = 3/dose level). Female NMRI mice were chosen as these represent the sex and strain used for the stage 1 and stage 2 HAT efficacy models. Blood samples were taken from each mouse at 2 (IV only), 5 (IV only), 15, and 30 min, 1, 2, 4, 6, 8, and 24 (po only) hours postdose and mixed with two volumes of distilled water. After suitable sample preparation, the concentration of test compound in blood was determined by UPLC-MS/MS using a Quattro Premier XE (Waters, USA). Pharmacokinetic parameters were derived from the mean blood concentration time curve using PKsolutions software v 2.0 (Summit Research Services, USA).
# [3] = test system: T. b. rhodesiense STIB900; assay: Stage 1 HAT mouse efficacy model, T. b. rhodesiense STIB900; assay type: in vivo; conditions: b.i.d. po for 4 days
# [4] = In vitro metabolite identification with mouse microsomes; assay type: in vitro ADME; conditions: for % Parent remaining (t = 15 min): 5µM, 15 min at 37°C, mouse liver microsomes; for sulfonamide N-dealkylation on incubation with mouse microsomes: words
# [5] = Rat hepatic portal vein study; assay type: in vivo; conditions: male Sprague–Dawley rat, 3 mg/kg orally
# Protocol: aIC50 values are shown as mean values of two or more determinations. bCompounds with Hill slopes […]
# Rat hepatic portal vein study protocol.
# 10mL/kg; Dose vehicle: 5% DMSO; 40% PEG400; 55% distilled water) to male Sprague-Dawley rats (n=7). A single rat was placed under terminal anaesthesia with isofluorane at 15 and 30 minutes, 1, 2, 4, 6 and 8 hours post-dose and a blood sample taken from the hepatic portal vein and the heart, each mixed with two volumes of distilled water. After suitable sample preparation, the concentration of compound 33 in all blood samples was determined by UPLC/MS/MS using a Quattro Premier XE (Waters, USA). The hepatic portal vein and cardiac blood concentration time profile is presented in Figure S2. Pharmacokinetic parameters were derived from the blood concentration time profiles using PKsolutions software v 2.0 (Summit Research Services, USA).
# [6] = Intrinsic clearance (Cli), mouse liver microsomes; assay type: in vitro ADME; conditions: for Cli (mouse): mouse liver microsomes; for Cli: mouse microsomes
# [7] = in vitro; assay type: cell-based, human; conditions: human; read-out: MRC-5 EC50
# [8] = Dose calculations for in vivo efficacy studies (brain concentration, brain free fraction); conditions: for oral dose needed to deliver stage 2 cures (Dose required): b.i.d., calculated to keep brain free concentration above T. brucei EC99
# Protocol: isofluorane. A blood sample was taken by cardiac puncture into two volumes of distilled water and the brain removed. After suitable sample preparation, the concentration of 1 in blood and brain was determined by UPLC/MS/MS using a Quattro Premier XE (Waters, USA). For each rat, the concentration in brain (ng/g) was divided by the concentration in blood (ng/mL) to give a brain:blood (B:B) ratio. The mean value obtained was quoted. A higher B:B ratio in animals pre-treated with GF120918 is indicative of a Pgp substrate.
# Dose calculations for in vivo efficacy studies.
# Property Compound 40 Compound 46 Compound 42
# Oral Dose 50mg/kg 50mg/kg 50mg/kg
# [9] = test system: T. b. brucei GVR35; assay type: in vivo; conditions: for toxicity in infected mice in stage 2 model: dosed at the MTD b.i.d. po for 5 days, mice affected
# Text: NMRI mice used in the experiment were purchased from Harlan, UK. Mice were maintained under standard temperature/lighting conditions and given food and water ad libitum. The trypanosomes used in this study were of the cloned stabilate T. b. brucei GVR35, originally derived from trypanosomes isolated from a wildebeest in the Serengeti in 1966.[31] By 13 days postinfection, parasites entered the CNS.[32] If treatment is delayed until 21 days after infection, successful cure is therefore dependent on the ability of the compound to penetrate through the blood–brain barrier.[33] This model is widely used to evaluate the efficacy of new compounds for treatment against stage 2 HAT.[34]
# Cryopreserved T. b. brucei GVR35 trypomastigotes were diluted to ∼5 × 10^4 cells/mL in 20 mM Hanks Balanced Salt Solution with glucose, and 0.2 mL of that dilution was used for infection (∼1 × 10^4 cells/mL per animal). All animals in the groups were intraperitoneally infected (ip) on day 0. After infection, parasitaemia was monitored by examination of tail blood smears. On day 21, post infection animals were randomly allocated to five mice per group. Infected animals were dosed with one of the following: diaminazene diaceturate (ip), 40 mg/kg once only as a HAT stage 1 control (early stage tyrypanocide to clear the parasites in the systemic circulation and in tissues other than CNS); Melasoprol (ip), 10 mg/kg once daily for 5 days as a positive control for HAT stage 2; […]. One group of five mice was an untreated control group. The dose solutions were prepared daily, using 5% DMSO:40% PEG400:55% Milli-Q water for compound (i.e., 40) and 10% DMSO:90% peanut oil for control drugs. To measure the response to treatment, parasitaemia was monitored twice per week until day 50. After day 50, the mice were checked only once per week until day 180 post treatment. Mice surviving to the end of experiment and blood smear aparasitaemic were considered cured.
# [10] = test system: T. b. brucei S427; assay: Stage 1 HAT mouse efficacy model, T. b. brucei S427; assay type: in vivo; conditions: for Activity in stage 1 mouse model: T. b. brucei S427, 50 mg/kg b.i.d. po for 4 days
# [11] = test system: T. b. brucei, BSF427, VSG118; assay: Cell viability assay, trypanosome; assay type: cell-based; conditions: for ~EC99: T. brucei
# [12] = test system: T. b. brucei GVR35; assay: Acute mouse model of T. b. brucei GVR35; assay type: in vivo
# [13] = Mouse brain penetration; assay type: in vivo; conditions: female, NMRI, brain and blood, intravenous, 2 mg free base/kg, read-out: B:B (brain:blood ratio in mouse)
# [14] = test system: HsNMT; assay type: biochemical, human
# [15] = molecular target: T1, TbNMT (Trypanosoma brucei brucei, UniProt Q388H8); assay: NMT enzyme inhibition scintillation proximity assay (TbNMT); assay type: biochemical, T. brucei; conditions: mean of two or more determinations; read-out: TbNMT IC50
# T1 sequence (Q388H8 1-446): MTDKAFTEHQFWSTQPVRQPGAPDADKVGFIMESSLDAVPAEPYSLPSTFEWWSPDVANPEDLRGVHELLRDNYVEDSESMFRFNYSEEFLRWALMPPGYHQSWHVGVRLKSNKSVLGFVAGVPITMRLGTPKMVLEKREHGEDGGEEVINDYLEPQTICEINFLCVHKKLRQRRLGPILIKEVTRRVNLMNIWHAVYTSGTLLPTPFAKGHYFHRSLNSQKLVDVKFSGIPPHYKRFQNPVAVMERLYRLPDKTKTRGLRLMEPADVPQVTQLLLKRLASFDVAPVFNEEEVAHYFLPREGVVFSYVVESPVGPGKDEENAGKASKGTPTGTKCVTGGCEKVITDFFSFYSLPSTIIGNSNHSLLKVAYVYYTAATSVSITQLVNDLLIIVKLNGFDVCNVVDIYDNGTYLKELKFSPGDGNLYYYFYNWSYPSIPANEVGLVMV
# [16] = test system: MRC5, human lung fibroblast cells; assay: in vitro; assay type: cell-based
# [17] = female, NMRI, whole blood, mouse
compound,measurement,setting,value
Cc1c(NS(=O)(=O)c2c(Cl)cc(-c3ccnc(N4CCNCC4)c3)cc2Cl)c(CC(C)C)nn1C [compound 6],MTD,[1]; po,20 mg/kg
same,AUC(0-t),"[2]; female, NMRI, whole blood, mouse, 10 mg/kg po, read-out: AUC0–8 (converted)",56700 ng·h/mL
same,"stage 1 HAT minimal curative dose, T. b. rhodesiense STIB900",[3],6 mg/kg
Cc1nn(C)c(C)c1N(C)S(=O)(=O)c1c(Cl)cc(CCCN2CCN(C)CC2)cc1Cl [compound 33],% Parent remaining (t = 15 min),[4],6%
same,sulfonamide N-dealkylation on incubation with mouse microsomes,[4],N-dealkylated sulfonamide as the predominant metabolite
same,hepatic extraction of the parent,[5],almost total hepatic extraction
same,Cli (mouse),[6],7.4 mL min^–1 g^–1
same,Cli,[6],7.4 mL/min/g
CCN(c1c(C)nn(C)c1C)S(=O)(=O)c1c(Cl)cc(CCCN2CCN(C)CC2)cc1Cl [compound 34],% Parent remaining (t = 15 min),[4],37%
same,sulfonamide N-dealkylation on incubation with mouse microsomes,[4],N-dealkylated sulfonamide as the predominant metabolite
same,oral exposure in mouse,[2],poor oral exposure
same,Cli (mouse),[6],3.1 mL min^–1 g^–1
same,Cli,[6],3.1 mL/min/g
Cc1nn(C)c(C)c1N(C)[S+](=O)([O-])c1c(Cl)cc(CCCC2CCN(C)CC2)cc1Cl [compound 37],% Parent remaining (t = 15 min),[4],25%
same,sulfonamide N-dealkylation on incubation with mouse microsomes,[4],N-dealkylated sulfonamide as the predominant metabolite
same,EC50,[7],1100 nM
same,Cli (mouse),[6],7.3 mL min^–1 g^–1
same,Cli,[6],7.3 mL/min/g
CCN(c1c(C)nn(C)c1C)[S+](=O)([O-])c1c(Cl)cc(CCCC2CCN(C)CC2)cc1Cl [compound 39],% Parent remaining (t = 15 min),[4],52%
same,sulfonamide N-dealkylation on incubation with mouse microsomes,[4],N-dealkylated sulfonamide as the predominant metabolite
same,EC50,[7],2200 nM
same,Cli (mouse),[6],12 mL min^–1 g^–1
"Cc1nn(C)c(C)c1N(C(F)F)S(=O)(=O)c1c(Cl)cc(CCCC2CCN(C)CC2)cc1Cl [compound 40, 2,6-Dichloro-N-(difluoromethyl)-4-(3-(1-methylpiperidin-4-yl)propyl)-N-(1,3,5-trimethyl-1H-pyrazol-4-yl)benzenesulfonamide]",% Parent remaining (t = 15 min),[4],67%
same,sulfonamide N-dealkylation on incubation with mouse microsomes,[4],did not undergo sulfonamide N-dealkylation
same,MTD at 1 day,[1]; po,100 mg/kg
same,oral dose needed to deliver stage 2 cures (Dose required),[8],20 mg/kg
same,fraction unbound,"[8]; mouse, in vivo",0.019
same,Conc in brain,[8]; oral dose 50mg/kg,1031 ng/g
same,Free brain conc,[8]; oral dose 50mg/kg,19.6 ng/g
same,Cmax,[2]; [17],661 ng/mL
same,oral exposure in mouse,[2],good oral exposure
same,toxicity in infected mice in stage 2 model,[9],1/5
same,efficacy in stage 2 model (mice cured),[9]; the two 100 mg/kg extended dosing schedules (8 days; 3 x 3 days pulsed),1/5
same,efficacy in a stage 2 (CNS) mouse model of HAT,[9]; words,partial efficacy
same,Activity in stage 1 mouse model,[10],fully curative
Cc1nn(C)c(C)c1N(CC(F)(F)F)[S+](=O)([O-])c1c(Cl)cc(CCCC2CCN(C)CC2)cc1Cl [compound 42],MTD at 1 day,[1],> 200 mg/kg
same,concentration at 8 h,"[8]; NMRI, mouse, in vivo, oral dose 50mg/kg, read-out: Free brain conc at 8 hours post-dose",6.2 ng/g
same,oral dose needed to deliver stage 2 cures (Dose required),[8],250 mg/kg
same,fraction unbound,"[8]; mouse, in vivo",0.032
same,Conc in brain,[8]; oral dose 50mg/kg,569 ng/g
same,Free brain conc,[8]; oral dose 50mg/kg,18.2 ng/g
same,Cmax,[2]; [17],876 ng/mL
same,Cli (mouse),[6],1.1 mL min^–1 g^–1
same,Cli,[6],1.1 mL/min/g
same,cures in stage 2 model,"[9]; T. b. brucei GVR35, 150 mg/kg b.i.d. po for 5 days",none of the mice were cured
same,toxicity in infected mice in stage 2 model,[9],well tolerated
same,Activity in stage 1 mouse model,[10],fully curative
same,~EC99,[11],~56 nM and ~31 ng/mL
Cc1nn(C)c(C)c1N(C(F)F)S(=O)(=O)c1c(Cl)cc(CCCCC2CCN(C)CC2)cc1Cl [compound 46],"minimum curative dose, acute model of T. b. brucei GVR35",[12]; b.i.d. po for 4 days,25 mg/kg
same,"reduction in efficacy, T. b. brucei GVR35 compared to S427",[12]; in vivo,~4 fold
same,MTD at 1 day,[1]; po,50 mg/kg
same,oral dose needed to deliver stage 2 cures (Dose required),[8],15 mg/kg
same,fraction unbound,"[8]; mouse, in vivo",0.01
same,Conc in brain,[8]; oral dose 50mg/kg,935 ng/g
same,Free brain conc,[8]; oral dose 50mg/kg,9.4 ng/g
same,Cmax,[2]; [17],708 ng/mL
same,toxicity in infected mice in stage 2 model,[9],2/5
same,toxicity in stage 2 model,[9]; extended 50 mg/kg dose regimen,significant toxicity
same,cures in stage 2 model,"[9]; extended regimens: 25 mg/kg b.i.d. for 10 days, 50 mg/kg b.i.d. po for 8 days",no cures
same,"stage 1 HAT minimal curative dose, T. b. brucei S427","[10]; b.i.d. po, mouse",6 mg/kg
same,~EC99,[11],~2 nM and ~1.1 ng/mL
Cc1nn(C)c(C)c1N(C(F)F)S(=O)(=O)c1c(Cl)cc(CCCN2CCN3CCC[C@@H]3C2)cc1Cl [compound 53],oral exposure in mouse,[2],no improvement to oral exposure
same,Cli (mouse),[6],15 mL min^–1 g^–1
same,Cli,[6],15 mL/min/g
Cc1nn(C)c(C)c1NS(=O)(=O)c1ccc(-c2ccnc(N3CCNCC3)c2)cc1 [compound 55],Kp,[13],0.1
same,EC50,[7],1400 nM
same,EC50,[11]; Trypanosoma brucei,4 nM
Cc1nn(C)c(C)c1N(C(F)F)S(=O)(=O)c1c(Cl)cc(CCCOC[C@H]2CCCCN2)cc1Cl [compound 89],IC50,[14]; mean of two or more determinations,570 nM
same,S = IC50 HsNMT/EC50 T. brucei,[14]; selectivity,7
same,IC50,[15],7 nM
same,EC50,[16],5000 nM
same,EC50,[11],85 nM

# Source: PMC4269550, “Lead Optimization of a Pyrazole Sulfonamide Series of Trypanosoma bruceiN-Myristoyltransferase Inhibitors: Identification and Evaluation of CNS Penetrant Compounds as Potential Treatments for Stage 2 Human African Trypanosomiasis” (Journal of Medicinal Chemistry, 2014)
